What was measured:
PLK1 = PLK1 (Homo sapiens, UniProt P53350); assay: PLK1 activity (known assay); type: biochemical
Method: (§1) The Wee1 pCDK1 and PLK1 activities were determined using known assays.

Wee1 = Wee1 (Homo sapiens, UniProt P30291); assay: Wee1 pCDK1 activity (known assay); type: cell-based
Method: as §1

Wee1, sequence (P30291 whole entry, species assumed): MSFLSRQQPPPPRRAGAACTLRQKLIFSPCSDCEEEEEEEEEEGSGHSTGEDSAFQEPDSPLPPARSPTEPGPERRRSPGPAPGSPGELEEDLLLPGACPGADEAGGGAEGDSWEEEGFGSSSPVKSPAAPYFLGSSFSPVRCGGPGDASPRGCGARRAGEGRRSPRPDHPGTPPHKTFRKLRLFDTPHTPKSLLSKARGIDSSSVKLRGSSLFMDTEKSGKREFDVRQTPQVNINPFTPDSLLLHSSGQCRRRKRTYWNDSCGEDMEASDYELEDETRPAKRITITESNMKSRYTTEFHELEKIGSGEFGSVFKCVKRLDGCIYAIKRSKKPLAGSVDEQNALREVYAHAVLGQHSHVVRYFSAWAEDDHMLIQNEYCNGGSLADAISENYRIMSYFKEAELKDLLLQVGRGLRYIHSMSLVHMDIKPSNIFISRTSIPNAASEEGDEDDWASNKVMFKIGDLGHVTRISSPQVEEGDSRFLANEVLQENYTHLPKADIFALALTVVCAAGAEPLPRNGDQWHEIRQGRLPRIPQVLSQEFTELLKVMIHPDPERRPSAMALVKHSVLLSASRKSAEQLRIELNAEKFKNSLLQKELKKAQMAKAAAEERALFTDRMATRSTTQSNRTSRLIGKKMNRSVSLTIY
PLK1, sequence (P53350 whole entry, species assumed): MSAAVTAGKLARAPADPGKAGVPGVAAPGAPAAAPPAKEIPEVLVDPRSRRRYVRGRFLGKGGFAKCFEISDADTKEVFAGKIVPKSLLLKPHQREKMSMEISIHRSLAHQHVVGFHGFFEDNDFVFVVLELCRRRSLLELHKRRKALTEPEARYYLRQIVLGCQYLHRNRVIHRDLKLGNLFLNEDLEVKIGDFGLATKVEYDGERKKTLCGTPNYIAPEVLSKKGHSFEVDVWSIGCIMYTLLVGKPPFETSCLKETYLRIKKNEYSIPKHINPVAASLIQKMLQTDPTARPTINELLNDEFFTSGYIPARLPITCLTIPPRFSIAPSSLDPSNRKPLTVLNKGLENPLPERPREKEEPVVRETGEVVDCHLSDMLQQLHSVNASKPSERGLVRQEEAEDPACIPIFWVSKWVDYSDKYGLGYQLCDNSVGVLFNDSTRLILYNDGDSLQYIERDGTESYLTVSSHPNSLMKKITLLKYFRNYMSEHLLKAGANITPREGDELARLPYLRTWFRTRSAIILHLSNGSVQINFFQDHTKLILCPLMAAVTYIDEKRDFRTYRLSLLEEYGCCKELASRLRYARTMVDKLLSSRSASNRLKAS

Row | Structure (SMILES) | IC50 (PLK1) | IC50 (Wee1)
1 | CN1CCC(c2ccc(Nc3ncc(C#N)c(Nc4cccc(N5CCCC5=O)n4)n3)cc2)CC1=O (stereo not drawn) [Example 67, 2-[4-(1-methyl-2-oxo-4-piperidyl)anilino]-4-[[6-(2-oxopyrrolidin-1-yl)-2-pyridyl]amino]pyrimidine-5-carbonitrile] | > 1000 nM | 500 to 1000 nM
2 | CCC1CN(C)CCN1c1ccc(Nc2ncc(C#N)c(Nc3cccc(N4CCCC4=O)n3)n2)cc1 (stereo not drawn) [Example 68, 2-[4-(2-ethyl-4-methyl-piperazin-1-yl)anilino]-4-[[6-(2-oxopyrrolidin-1-yl)-2-pyridyl]amino]pyrimidine-5-carbonitrile] | > 1000 nM | 100 to 250 nM
3 | COCC1CN(C)CCN1c1ccc(Nc2ncc(C#N)c(Nc3cccc(N4CCCC4=O)n3)n2)cc1 (stereo not drawn) [Example 69, 2-[4-[2-(methoxymethyl)-4-methyl-piperazin-1-yl]anilino]-4-[[6-(2-oxopyrrolidin-1-yl)-2-pyridyl]amino]pyrimidine-5-carbonitrile] | > 1000 nM | 250 to 500 nM
4 | CN1CCc2cc(Nc3ncc(C#N)c(Nc4cccc(N5CCCC5=O)n4)n3)ccc2C1 [Example 72, 2-[(2-methyl-3,4-dihydro-1H-isoquinolin-6-yl)amino]-4-[[6-(2-oxopyrrolidin-1-yl)-2-pyridyl]amino]pyrimidine-5-carbonitrile] | > 1000 nM | ≤ 100 nM
5 | Cc1cc(Nc2ncc(C#N)c(Nc3cccc(N4CCCC4=O)n3)n2)cc2c1CN(C)CC2 [Example 73, 2-[(2,8-dimethyl-3,4-dihydro-1H-isoquinolin-6-yl)amino]-4-[[6-(2-oxopyrrolidin-1-yl)-2-pyridyl]amino]pyrimidine-5-carbonitrile] | > 1000 nM | ≤ 100 nM
6 | CN1CCc2ccc(Nc3ncc(C#N)c(Nc4cccc(N5CCCC5=O)n4)n3)cc2C1 [Example 74, 2-[(2-methyl-3,4-dihydro-1H-isoquinolin-7-yl)amino]-4-[[6-(2-oxopyrrolidin-1-yl)-2-pyridyl]amino]pyrimidine-5-carbonitrile] | > 1000 nM | 100 to 250 nM
7 | CN1CCc2cc(Nc3ncc(C#N)c(Nc4cccc(N5CCCC5=O)n4)n3)cc(Cl)c2C1 [Example 76, 2-[(8-chloro-2-methyl-3,4-dihydro-1H-isoquinolin-6-yl)amino]-4-[[6-(2-oxopyrrolidin-1-yl)-2-pyridyl]amino]pyrimidine-5-carbonitrile] | > 1000 nM | 500 to 1000 nM
8 | CN1CCC(O)(c2ccc(Nc3ncc(C#N)c(Nc4cccc(N5CCCC5=O)n4)n3)cc2)CC1 [Example 78, 2-[4-(4-hydroxy-1-methyl-4-piperidyl)anilino]-4-[[6-(2-oxopyrrolidin-1-yl)-2-pyridyl]amino]pyrimidine-5-carbonitrile] | > 1000 nM | > 1000 nM

Next, values leading:

Row | IC50 (PLK1) | IC50 (Wee1) | Structure (SMILES)
9 | > 1000 nM | 250 to 500 nM | CN1CC2CCC(C1)N2c1ccc(Nc2ncc(C#N)c(Nc3ccc4c(n3)C(C)(O)CC4)n2)cc1 (stereo not drawn) [Example 57, 4-[(7-hydroxy-7-methyl-5,6-dihydrocyclopenta[b]pyridin-2-yl)amino]-2-[4-(3-methyl-3,8-diazabicyclo[3.2.1]octan-8-yl)anilino]pyrimidine-5-carbonitrile]
10 | > 1000 nM | 250 to 500 nM | CN1CCc2cc(Nc3ncc(C#N)c(Nc4ccc5c(n4)C(C)(O)CC5)n3)ccc2C1(C)C (stereo not drawn) [Example 61, 4-[(7-hydroxy-7-methyl-5,6-dihydrocyclopenta[b]pyridin-2-yl)amino]-2-[(1,1,2-trimethyl-3,4-dihydroisoquinolin-6-yl)amino]pyrimidine-5-carbonitrile]
11 | 250 to 500 nM | ≤ 100 nM | Cc1cc(Nc2ncc(C#N)c(Nc3cccc(N4CCCC4=O)n3)n2)ccc1C1CCN(C)CC1 [Example 62, 2-[3-methyl-4-(1-methyl-4-piperidyl)anilino]-4-[[6-(2-oxopyrrolidin-1-yl)-2-pyridyl]amino]pyrimidine-5-carbonitrile]
12 | > 1000 nM | 500 to 1000 nM | COCc1cc(Nc2ncc(C#N)c(Nc3cccc(N4CCCC4=O)n3)n2)ccc1C1CCN(C)CC1 [Example 63, 2-[3-(methoxymethyl)-4-(1-methyl-4-piperidyl)anilino]-4-[[6-(2-oxopyrrolidin-1-yl)-2-pyridyl]amino]pyrimidine-5-carbonitrile]
13 | > 1000 nM | 250 to 500 nM | C[C@@H]1CN(C)CCN1c1ccc(Nc2ncc(C#N)c(Nc3cccc(N4CCCC4=O)n3)n2)cc1 [Example 64, 4-[[6-(2-oxopyrrolidin-1-yl)-2-pyridyl]amino]-2-[4-[(2R)-2,4-dimethylpiperazin-1-yl]anilino]pyrimidine-5-carbonitrile]
14 | > 1000 nM | 100 to 250 nM | C[C@H]1CN(C)CCN1c1ccc(Nc2ncc(C#N)c(Nc3cccc(N4CCCC4=O)n3)n2)cc1 [Example 65, 4-[[6-(2-oxopyrrolidin-1-yl)-2-pyridyl]amino]-2-[4-[(2S)-2,4-dimethylpiperazin-1-yl]anilino]pyrimidine-5-carbonitrile]
15 | > 1000 nM | 250 to 500 nM | COCc1cc(Nc2ncc(C#N)c(Nc3cccc(N4CCCC4=O)n3)n2)ccc1N1CCN(C)CC1 [Example 66, 2-[3-(methoxymethyl)-4-(4-methylpiperazin-1-yl)anilino]-4-[[6-(2-oxopyrrolidin-1-yl)-2-pyridyl]amino]pyrimidine-5-carbonitrile]
16 | ≤ 100 nM | 250 to 500 nM | CN1CC2CC1CN2c1ccc(Nc2ncc(C#N)c(Nc3cccc(N4CCCC4=O)n3)n2)cc1 (stereo not drawn) [Example 70, 2-[4-(5-methyl-2,5-diazabicyclo[2.2.1]heptan-2-yl)anilino]-4-[[6-(2-oxopyrrolidin-1-yl)-2-pyridyl]amino]pyrimidine-5-carbonitrile]
17 | 250 to 500 nM | 500 to 1000 nM | CN1CCN(c2ccc(Nc3ncc(C#N)c(Nc4cccc(N5CCCC5=O)n4)n3)cc2)CC1=O [Example 71, 2-[4-(4-methyl-3-oxo-piperazin-1-yl)anilino]-4-[[6-(2-oxopyrrolidin-1-yl)-2-pyridyl]amino]pyrimidine-5-carbonitrile]
18 | 100 to 250 nM | ≤ 100 nM | Cc1cc(Nc2ncc(C#N)c(Nc3cccc(N4CCCC4=O)n3)n2)cc2c1CCN(C)C2 [Example 75, 2-[(2,5-dimethyl-3,4-dihydro-1H-isoquinolin-7-yl)amino]-4-[[6-(2-oxopyrrolidin-1-yl)-2-pyridyl]amino]pyrimidine-5-carbonitrile]

— US20240228459A1 (Boundless Bio, Inc., priority 2022, published 2024)
